Data taken from US20260137687A1, “GTPase INHIBITORS AND USES THEREOF” (The Regents of The University of California, priority 2022, published 2026).

Legend:
K-Ras(G12R)·GDP = biological target: T1, K-Ras(G12R)·GDP (Homo sapiens, UniProt P01116, G12R); assay: Intact protein mass spectrometry, covalent modification; format: binding; conditions: 100 μM compound, pH 7.5, 23° C.; adducts +656 Da and +638 Da
T1 construct: human K-Ras (G12R, aa 1-169); 6xHis tag + TEV cleavage site (N, cleaved yes); made in house; host or cells: E. coli BL21(DE3)
Method: Purified K-Ras variants (4 μM final) were incubated with compounds at 50 or 100 μM (1% v/v DMSO final) in 20 mM HEPES pH 7.5, 150 mM NaCl, 1 mM MgCl2 in a total volume of 150 μL. After the noted time, the samples were analyzed by intact protein LC/MS using a Waters Xevo G2-XS system equipped with an Acquity UPLC BEH C4 1.7 μm column. The mobile phase was a linear gradient of 5-95% acetonitrile/water+0.05% formic acid. The spectra were processed using QuantLynx, giving the ion counts observed for the most abundant species. For assays conducted under an alternate pH, the HEPES buffer was replaced with one of the following buffers (maintaining 150 mM NaCl and 1 mM MgCl2): 20 mM MES pH 6 or 20 mM Tris pH 9.

[1] = tested on: BaF3/G12R cells (±IL-3), TCC-Pan-2 cells, and A375 cells; assay: Cellular activity (phospho-ERK immunoblot, growth inhibition); format: cell-based; conditions: at concentrations below 100 μM
Method: When indicated, cells were treated with drugs at 40-60% confluency at a final DMSO concentration of 1%. At the end of treatment period, cells were placed on ice. Unless otherwise indicated, adherent cells were washed once with ice-cold PBS (1 mL), scraped with a spatula, and pelleted by centrifugation (500×g, 5 min). Suspension cells were pelleted by centrifugation (500×g, 5 min), washed with 1 mL ice-cold PBS, and pelleted again. Cells were lysed in RIPA buffer supplemented with protease and phosphatase inhibitors (cOmplete and phosSTOP, Roche) on ice for 10 min. Lysates were clarified by high-speed centrifugation (19,000×g, 10 min). Concentrations of lysates were determined with protein BCA assay (Thermo Fisher) and adjusted to 2 mg/mL with additional RIPA buffer (or Co-IP Lysis Buffer). Samples were mixed with 5×SDS Loading Dye and heated at 95° C. for 5 min.
Cells were seeded into 96-well white flat bottom plates (1,000 cells/well) (Corning) and incubated overnight. Cells were treated with the indicated compounds in a nine-point threefold dilution series (100 μL final volume) and incubated for 72 h. Cell viability was assessed using a commercial CellTiter-Glo (CTG) luminescence-based assay (Promega). […] Plates were placed on an orbital shaker for 30 min before recording luminescence using a Spark 20M (Tecan) plate reader.

[2] = biological target: T2, K-Ras(G12R) Cyslight bound by GDP (Homo sapiens, UniProt P01116, C118S/C51S/C80L/G12R); assay: LC-MS analysis of adduct formation for crystallization; format: binding; conditions: 100 μM protein, 200 μM compound, 23° C.
T2 construct: human K-Ras G12R Cyslight (G12R/C51S/C80L/C118S, aa 1-169); 6xHis tag + TEV cleavage site (N, cleaved yes); made in house; host or cells: E. coli BL21(DE3)
Method: K-Ras(G12R) Cyslight ([…]/C51S/C80L/C118S) bound by GDP purified by size exclusion chromatography was diluted to 100 μM in Reaction Buffer (20 mM HEPES 7.5, 150 mM NaCl, 1 mM MgCl2). […] The reaction mixture was purified by size exclusion chromatography (Superdex75, 20 mM HEPES 7.5, 150 mM NaCl, 1 mM MgCl2) and concentrated to 20 mg/mL. For crystallization, 0.1 μL of the protein was mixed with 0.1 μL well buffer containing 0.1 M MES pH 6.5, 30% w/v PEG 4K. Crystals were grown at 20° C. in a 96-well plate using the hanging-drop vapor diffusion method. Maximal crystal growth was achieved after 7 days. The crystals were transferred to a cryoprotectant solution (0.1 M MES pH 6.5, 30% w/v PEG 4K, 15% glycerol) and flash-frozen in liquid nitrogen.

[3] = permeability controls; cited from earlier work

CC(=O)CC(=O)N1[C@@H]2CC[C@H]1CN(c1nc(OCC34CCCN3CCC4)nc3c(F)c(-c4cccc5cccc(Cl)c45)ncc13)C2 [compound 2, 1-((1R,5S)-3-(7-(8-chloronaphthalen-1-yl)-8-fluoro-2-((tetrahydro-1H-pyrrolizin-7a(5H)-yl)methoxy)pyrido[4,3-d]pyrimidin-4-yl)-3,8-diazabicyclo[3.2.1]octan-8-yl)butane-1,3-dione]
covalent adduct formation with recombinant K-Ras(G12R)·GDP (K-Ras(G12R)·GDP): did not form any detectable covalent adduct

CC(=O)C(O)(O)C(=O)N1CCN(c2nc(OCC34CCCN3CCC4)nc3c(F)c(-c4cccc5cccc(Cl)c45)ncc23)C[C@@H]1CC#N [compound 4, (S)-2-(4-(7-(8-chloronaphthalen-1-yl)-8-fluoro-2-((tetrahydro-1H-pyrrolizin-7a(5H)-yl)methoxy)pyrido[4,3-d]pyrimidin-4-yl)-1-(2,2-dihydroxy-3-oxobutanoyl)piperazin-2-yl)acetonitrile]
cellular activity [1]: did not show cellular activity | conversion of K-Ras(G12R) Cyslight·GDP to covalent adduct [2]: full conversion to a single covalent adduct

O=C(N[C@H](CO)[C@H](O)c1ccc([N+](=O)[O-])cc1)C(Cl)Cl [Chloramphenicol]
permeability class of PAMPA control [3]: high

O=C(O)Cc1ccccc1Nc1c(Cl)cccc1Cl [Diclofenac]
permeability class of PAMPA control [3]: medium
